# Values quoted from earlier work as cited in patent US4925675A (hiMedics, Inc., priority 1988, dated 1990).
# Read-outs that look alike come from different tables or passages of the source.
# What was measured:
# [1] = in vivo
compound,measurement,setting,value
CC[C@H]1OC(=O)[C@H](C)[C@@H](O[C@H]2C[C@@](C)(OC)[C@@H](O)[C@H](C)O2)[C@H](C)[C@@H](O[C@@H]2O[C@H](C)C[C@H](N(C)C)[C@H]2O)[C@](C)(O)C[C@@H](C)C(=O)[C@H](C)[C@@H](O)[C@]1(C)O [Erythromycin],pKa,,8.7
same,solubility in simulated intestinal fluid,SIF,very soluble
same,"solubility in alcohol, chloroform, ether and acetone","alcohol, chloroform, ether and acetone",freely soluble
same,solubility in amyl acetate and ethylene dichloride,amyl acetate and ethylene dichloride,moderately soluble
same,solubility in water,,very slightly soluble
same,solubility in water,listed as erythromycin,not highly soluble
same,absorption in small intestine versus stomach,[1],better absorption characteristics in the small intestine than in the stomach
